Results published in the supplement of paper PMC4862054.

Assays:
CAL-148 = assay: normalised response (% of control), CellTox Green; higher = less cell death (100 = DMSO, 0 = benzethonium chloride kill control); conditions: incubation time: 72 h
In short: (§1)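 Plates were normalised with 0.1 % DMSO as 100 and a positive kill control as 0. Breast cancer cell lines in 20 µl suspension had been seeded into 384-well plates with compound at 5 concentrations in 10-fold steps over a compound-specific 10,000-fold range, incubated 72 h, and read for CellTox Green fluorescence (485/520 nm) followed by CellTiter-Glo luminescence. Each value is the normalised signal at a single concentration.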

MFM-223 = assay: as above; conditions: incubation time: 72 h
In short: as §1

| SMILES | normalised response (CAL-148) [%] | normalised response (MFM-223) [%] |
| --- | --- | --- |
| Cc1c(CN2CCN(C(=O)[C@H](C)O)CC2)sc2c(N3CCOCC3)nc(-c3cnc(N)nc3)nc12 [GDC-0980] (10000 nM) | 49.1 | -39.7 |
| Nc1cccc2c1CN(C1CCC(=O)NC1=O)C2=O (configuration not stated) [Lenalidomide] (1000 nM) | – | 99.6 |
| Nc1cccc2c1CN(C1CCC(=O)NC1=O)C2=O (configuration not stated) [Lenalidomide] (10000 nM) | – | 80.3 |
| C[C@]12O[C@H](C[C@]1(O)CO)n1c3ccccc3c3c4c(c5c6ccccc6n2c5c31)CNC4=O [Lestaurtinib] (100 nM) | 95.8 | 86.4 |
| C[C@]12O[C@H](C[C@]1(O)CO)n1c3ccccc3c3c4c(c5c6ccccc6n2c5c31)CNC4=O [Lestaurtinib] (1000 nM) | 67 | 89.8 |
| O=C1c2c(O)ccc(O)c2C(=O)c2c(NCCNCCO)ccc(NCCNCCO)c21 [Mitoxantrone] (100 nM) | 82.3 | 101 |
| O=C1c2c(O)ccc(O)c2C(=O)c2c(NCCNCCO)ccc(NCCNCCO)c21 [Mitoxantrone] (1000 nM) | 52.5 | 88 |
| Nc1ccccc1NC(=O)c1ccc(CNc2nccc(-c3cccnc3)n2)cc1 [Mocetinostat] (1000 nM) | 98.8 | 92.4 |
| Nc1ccccc1NC(=O)c1ccc(CNc2nccc(-c3cccnc3)n2)cc1 [Mocetinostat] (10000 nM) | 35.8 | 60.3 |
| COc1nc(N)nc2c1ncn2[C@@H]1O[C@H](CO)[C@@H](O)[C@@H]1O [Nelarabine] (1000 nM) | 87.2 | 89.8 |
| COc1nc(N)nc2c1ncn2[C@@H]1O[C@H](CO)[C@@H](O)[C@@H]1O [Nelarabine] (10000 nM) | 100 | 87.6 |
| Cc1ccc(Nc2nccc(N(C)c3ccc4c(C)n(C)nc4c3)n2)cc1S(N)(=O)=O [Pazopanib] (1000 nM) | 106 | 102 |
| Cc1ccc(Nc2nccc(N(C)c3ccc4c(C)n(C)nc4c3)n2)cc1S(N)(=O)=O [Pazopanib] (10000 nM) | 100 | 96.1 |
| O=C(CCBr)N1CCN(C(=O)CCBr)CC1 [Pipobroman] (1000 nM) | – | 94 |
| O=C(CCBr)N1CCN(C(=O)CCBr)CC1 [Pipobroman] (10000 nM) | 96.9 | – |
| C[C@]12C=CC(=O)C=C1CC[C@@H]1[C@@H]2[C@@H](O)C[C@@]2(C)[C@H]1CC[C@]2(O)C(=O)CO [Prednisolone] (1000 nM) | 104 | 95.8 |
| C[C@]12C=CC(=O)C=C1CC[C@@H]1[C@@H]2[C@@H](O)C[C@@]2(C)[C@H]1CC[C@]2(O)C(=O)CO [Prednisolone] (10000 nM) | 101 | 99.7 |
| CNC(=O)c1cc(Oc2ccc(NC(=O)Nc3ccc(Cl)c(C(F)(F)F)c3)cc2)ccn1 [Sorafenib] (100 nM) | 73 | 101 |
| CNC(=O)c1cc(Oc2ccc(NC(=O)Nc3ccc(Cl)c(C(F)(F)F)c3)cc2)ccn1 [Sorafenib] (1000 nM) | 74.5 | 92.8 |
| CCN(CC)CCNC(=O)c1c(C)[nH]c(/C=C2\C(=O)Nc3ccc(F)cc32)c1C [Sunitinib] (100 nM) | 86 | 101 |
| CCN(CC)CCNC(=O)c1c(C)[nH]c(/C=C2\C(=O)Nc3ccc(F)cc32)c1C [Sunitinib] (1000 nM) | 85.4 | 99.2 |
| CC[C@@]1(O)C(=O)OCc2c1cc1n(c2=O)Cc2cc3c(CN(C)C)c(O)ccc3nc2-1 [Topotecan] (100 nM) | 37.6 | 98 |
| CC[C@@]1(O)C(=O)OCc2c1cc1n(c2=O)Cc2cc3c(CN(C)C)c(O)ccc3nc2-1 [Topotecan] (1000 nM) | 12 | 90.7 |
